Source: patent US3962316A, “Carbamate” (priority 1972, dated 1976)

Assays:
Format in all cases: in vivo
[1] = test system: houseflies (Musca domestica); settings: after 4 hours
Description: 1 mm^3 of an acetonic solution of the active ingredients is applied to the ventral abdomen of houseflies (Musca domestica) under slight CO2 narcosis.

[2] = test system: caterpillars of the cabbage moth (Plutella maculipennis); assay: Contact action and effect of ingested food on caterpillars of the cabbage moth (dipped cabbage leaves); settings: for Mortality (in words): 0.1% by weight of ingredient in aqueous emulsion
Description: Contact action and effect of ingested food on caterpillars of the cabbage moth (Plutella maculipennis). Young cabbage leaves are dipped for 3 seconds into aqueous emulsions of the active ingredients. After they have dried they are put into Petri dishes and caterpillars of the cabbage moth are placed on them.

[3] = test system: oriental cockroaches (Blatta orientalis); assay: Contact with treated inner surfaces of 1 liter glass beakers, adult oriental cockroaches
Description: Adult oriental cockroaches (Blatta orientalis) are placed in 1 liter glass beakers whose inner surfaces have been treated with acetonic solutions of the active ingredients. The action is determined after 48 hours.

## o-(α-2-chloroethoxy)-ethoxyphenyl-N-methylcarbamate [Example 2]
[1]
  LD50: 0.3 γ/fly

## CNC(=O)Oc1ccccc1OC(CCl)OC (stereo not drawn) [Active ingredient 1, o-(α-methoxy-β-chloro)-ethoxyphenyl-N-methylcarbamate]
[2]; Plutella
  mortality at 0.05 %: 100%
[3]; 48 h
  mortality at 0.05 mg: 100%
[1]
  LD50: 0.41 γ/fly

## CNC(=O)Oc1cccc2ccccc12 [I]
[2]; Plutella
  mortality at 0.1 %: 100%
[3]; 48 h
  mortality at 0.2 mg: 100%

## CCOC(CCl)Oc1ccccc1OC(=O)NC (stereo not drawn) [compound 6]
[2]; Plutella
  mortality at 0.02 %: 100%

## CNC(=O)Oc1cccc(C)c1 [II]
[2]
  Mortality (in words): ineffective
[3]; 0.5 mg/breaker, after 48 hours
  mortality at 0.5 mg: 100%
[1]; 10.0 γ/fly
  Effect on flies (LD50 column, in words): ineffective

## CNC(=O)Oc1ccccc1OC(C)C [III]
[2]
  Mortality (in words): ineffective
[1]
  LD50: 1.5 γ/fly
